Tests used:
Type in all cases: in vivo, mouse
[1] = test system: Swiss mice with partial portal vein ligation (PPVL); assay: Hemodynamic parameters (flow superior mesenteric artery) in partial portal vein ligation (PPVL) model; settings: lanifibranor 30 mg/kg daily for 7 days, started one week after ligation
Protocol: (§1) Experiments were carried out using Swiss mice (7 to 10 animals per groups). Portal hypertension was induced using the partial portal vein ligation (PPVL) model. A midline abdominal incision was performed and the portal vein was separated from the surrounding tissue. A ligature (silk cut 5-0) was tied around both portal vein and adjacent 27-gauge blunt-tipped needle. Subsequent removal of the needle yielded a calibrated stenosis of the portal vein. One week after the ligation mice received daily lanifibranor (10 mg/kg or 30 mg/kg) or vehicle in a therapeutic setting for 7 days. The effect of lanifibranor on angiogenesis was evaluated by analyzing hepatic and systemic hemodynamics, serum, hepatic and mesenteric histology. The vascular corrosion casting is a technic allowing the capture of the 3D structure of the vascular bed. Briefly the vascular corrosion casts were obtained by inserting, after euthanasia, a 26-gauge catheter into the ileocolic vein, which was then perfused with Batson n°17 solution. The soft tissue was dissolved overnight in a 25% potassium hydroxide solution. The vascular corrosion casts of the venous mesenteric vasculature were analyzed using μCT.

[2] = test system: Swiss mice with partial portal vein ligation (PPVL); assay: Spleen weight in partial portal vein ligation (PPVL) model; settings: for spleen weight: control 0.38, PPVL 0.63; for reduction of spleen weight: control 0.38, PPVL 0.63% body weight
Protocol: as §1

[3] = test system: Swiss mice with partial portal vein ligation (PPVL); assay: Corrosion vascular casting of venous mesenteric vasculature analyzed by μCT in PPVL model; settings: for mesenteric vascular wall thickness: control 20.31, PPVL 37.53
Protocol: as §1

[4] = test system: Swiss mice with partial portal vein ligation (PPVL); assay: Immunohistochemistry staining for CD34 (angiogenesis and vascular expansion) in mesenteric area in PPVL model
Protocol: as §1, with “μCT. Evaluation of the vasculature system with an immunohistochemistry staining for CD34 allow to highlight the increase of blood vessels in the mesenteric area in PPVL animals. […]” for “μCT.”

O=C(O)CCCc1cc2cc(Cl)ccc2n1S(=O)(=O)c1ccc2ncsc2c1 [lanifibranor, 4-[1-(1,3-benzothiazol-6-ylsulfonyl)-5-chloroindol-2-yl]butanoic acid]
reduction of flow superior mesenteric artery [1]: 51.7% | spleen weight ([2]; 10 mg/kg daily for 7 days): 0.57 % body weight | reduction of spleen weight ([2]; 10 mg/kg daily for 7 days): 23.7% | spleen weight ([2]; 30 mg/kg daily for 7 days): 0.49 % body weight | reduction of spleen weight ([2]; 30 mg/kg daily for 7 days): 56.1% | reduction of mesenteric vascular wall thickness ([3]; 10 mg/kg daily for 7 days): 49.8% | mesenteric vascular wall thickness ([3]; 10 mg/kg daily for 7 days): 28.9 µm | reduction of mesenteric vascular wall thickness ([3]; 30 mg/kg daily for 7 days): 52.3% | mesenteric vascular wall thickness ([3]; 30 mg/kg daily for 7 days): 28.5 µm | expansion of the venous mesenteric vasculature ([3]; lanifibranor treatment, data not shown): reduced | reduction of staining for CD34 ([4]; 10 mg/kg daily for 7 days): 69.5% | reduction of staining for CD34 ([4]; 30 mg/kg daily for 7 days): 135.8%

Source: patent publication US20260256748A1, “LANIFIBRANOR FOR USE IN THE TREATMENT OF SPLANCHNIC VASODILATATION IN A PATIENT WITH A LIVER CONDITION” (INVENTIVA, priority 2023, published 2026)
